These results are taken from article PMC11496873, “Synthesis, characterization, and in vitro–in ovo toxicological screening of silibinin fatty acids conjugates as prodrugs with potential biomedical applications” (Biomolecules and Biomedicine, 2024).

The viability is a read-out of living cells in per cent, often relative to untreated cells.

The test system of data set [1] is chorioallantoic membrane (CAM). Description: In ovo irritation test (HET-CAM). Format: in vivo, chicken. The following applies: SIL-O and SIL-L at 100 µM. The procedure: The potential irritant effect of SIL-O and SIL-L (100 µM) was assessed in ovo, by applying the Hen’s Egg Test – Chorioallantoic Membrane (HET-CAM) test. The applied procedure was also described by Breban-Schwarzkopf et al.. Briefly, chicken-fertilized eggs were cleaned and disinfected with ethanol 70% and placed in an incubator at 37 ^∘C and 60% humidity. On the fourth day of incubation, a cut was performed on the eggs’ tips to allow the extraction of 6–7 mL albumen, while on the fifth day, a window was cut on the upper side of each egg and covered with adhesive tape. The experiment was performed on the tenth day of incubation, by applying the samples directly on the chorioallantoic membrane (CAM) and analyzing the occurrence of vascular impairments, such as hemorrhage, lysis, and coagulation for 5 min. Representative pictures were taken before the start of the experiment (T0) and at its end (T5) using the Discovery 8 SteREO Microscope equipped with an Axio CAM 105 color camera and processed in ZEN core version 3.8 software (Zeiss, Göttingen, Germany). The irritant potential was determined by calculating the irritation score (IS) for each sample and interpreted as presented in a previous publication.

A short description of another data set: MTT cell viability assay. Format: cell-based. The procedure:
The study was performed using three cell lines – H9c2(2-1) cardiomyoblasts (CRL-1446™), HepaRG hepatocytes (HPRGC10), and HaCaT keratinocytes (300493) – delivered as frozen vials by ATCC (Lomianki, Poland), ThermoFisher Scientific (Waltham, MA, USA), and CLS Cell Lines Service GmbH (Eppelheim, Germany), respectively. H9c2(2-1) and HaCaT cells were grown in DMEM, while HepaRG cells were cultured in William’s E Medium containing insulin from bovine pancreas (at a final concentration of 4 µg/mL) and hydrocortisone 21-hemisuccinate sodium salt (at a final concentration of 50 µM). Both media were supplemented with 10% FCS and 1% antibiotics (penicillin 100 U/mL and streptomycin 100 µg/mL). The cells were cultured at 37 ^∘C and 5% CO2, in a humidified incubator for cell culture, presenting normal proliferation during the experiments.
The impact of all tested compounds (1, 10, 25, 50, and 100 µM) on the viability of H9c2(2-1), HepaRG, and HaCaT cells was assessed using the MTT method which was performed according to a previous publication. Briefly, the cells cultured in 96-well plates were exposed to SIL, SIL-O, and SIL-L for 24 h. At the end of the treatment, the culture medium containing SIL, SIL-O, and SIL-L was removed and replaced with 100 µL/well of the specific culture media for the used cell lines (DMEM for H9c2(2-1) cells and HaCaT; William’s E Medium for HepaRG). Then, 10 µL of MTT reagent was added in every well, followed by 3 h of incubation of the plates at 37 ^∘C. The absorbance measurements were performed at 570 and 630 nm on Cytation 5 Microplate Reader (BioTek Instruments Inc., Winooski, VT, USA) following the addition of the MTT solubilization solution (a volume of 100 µL/well), and the plates’ incubation at room temperature for 30 min, protected from light.
In general terms: Tetrazolium assays rely on reduction of a dye to a coloured formazan, in cell work by metabolically active cells.

In the next data set the test system is HaCaT keratinocytes. Description: Hoechst 33342 nuclear staining, apoptotic index. Type of data set: cell-based, human. The following applies: 100 µM, 24 h. As to the method: The influence of SIL, SIL-O, and SIL-L (100 µM) on nuclear morphology was evaluated by imaging the cells’ nuclei stained with Hoechst 33342. Shortly, at the end of the treatment, the H9c2(2-1), HepaRG, and HaCaT cells cultured in 12-well plates were treated with staining solution (500 µL/well, dilution of 1:2000 in PBS) for 10 min at room temperature, protected from light and washed with PBS before imaging which was performed on Cytation 1 Imaging Reader (BioTek Instruments Inc., Winooski, VT, USA). Image processing was conducted using the Gen5™ Microplate Data Collection and Analysis Software (BioTek Instruments Inc., Winooski, VT, USA). Apoptotic index (AI) was calculated by applying the formula previously reported: […]

Another data set has as its system H9c2(2-1) cells. Nature of the data set: Cell migration (scratch) assay. Format: cell-based. Conditions: 24 h, normalized to control. As to the method: (§1) To investigate the effect of SIL, SIL-O, and SIL-L treatments on the migration of H9c2(2-1), HepaRG, and HaCaT cells, the scratch assay was performed as follows: (A) the cells (10^5 cells/mL/well) were seeded in Corning Costar 24-well plates and left to attach and reach a proper confluence, (B) a scratch was automatically made in every well using the AutoScratch™ Wound Making Tool (BioTek Instruments Inc., Winooski, VT, USA), (C) the cells were exposed to SIL and its FAs derivatives 1, 10, and 25 µM for 24 h, and (D) the wound area was imaged at two time points (0 and 24 h) using Cytation 1 Imaging Reader (BioTek® Instruments Inc., Winooski, VT, USA). The Gen5 ™ Microplate Data Collection and Analysis Software (BioTek® Instruments Inc., Winooski, VT, USA) was used to measure the wound widths in each image. The migration rates (%) for the applied treatments were determined using the formula presented below and normalized to control.
(§2) Migration rate (%) ═ [drawing 2] ×100, where:
(§3) At0 ═ wound width at 0 h,
(§4) At24 ═ wound width at 24 h.

The test system of a further data set is HepaRG cells. Description: Cell migration (scratch) assay. Format: cell-based. The following applies: 24 h, normalized to control. The procedure:
as §1, §2, §3, §4

For data set [2], the system named is HaCaT cells. Description: Cell migration (scratch) assay. The following applies: 24 h. Format: cell-based, human. As to the method:
as §1, §2, §3, §4

Details of data set [3]: method as in PMID 19601873. Conditions: buffers with pH 1.0–7.8 and physiological media (plasma, intestinal and liver fluids); cited from earlier work.
Another data set has as its system H9c2 cells. On the set-up: method as in PMID 22818713. The following applies: concentrations up to 200 µM, 48 h; cited from earlier work.
Data set [4] deals with HK-2 human renal tubular endothelial cells. Details: method as in PMID 32103902. Conditions: HK-2 cells, 60 and 90 µM, 48 h; cited from earlier work.
For data set [5], the system named is Madin–Darby Canine Kidney (MDCK) cells. Details: method as in PMID 20036447. Conditions: 800 µM, 2 h; cited from earlier work.
In data set [6] the test system is LX-2 human hepatic stellate cells. Details: method as in PMID 27746612. Conditions: LX-2 cells, 10, 50 and 100 µM; cited from earlier work.
In data set [7] the test system is HaCaT cells. On the set-up: method as in earlier work. Conditions: 24 h, cited from earlier work.

Where two headings read alike, the source gives them in different places.

For `CCCCCCCCCCCCOS(=O)(=O)[O-].[Na+]` [SDS 1%, sodium dodecyl sulfate], the “IS value (irritation score)” value in data set [1] (5 min) stood at 19.74. The “Observation (irritant classification)” value in [1] (based on IS value) is given as “Strong irritant”.

Turning to `COc1cc(C2Oc3cc([C@H]4Oc5cc(O)cc(O)c5C(=O)[C@@H]4O)ccc3OC2CO)ccc1O` (some centres unmarked) [SIL, Silibinin], the viability at 24 h in “MTT cell viability assay” (human, HepaRG hepatocytes, higher concentrations (reduction up to), normalized to control) was ~80%. In “MTT cell viability assay” (rat, H9c2(2-1) cardiomyoblasts, 1 µM, normalized to control), the viability at 24 h, 1 µM stood at 128%. Besides, the viability at 24 h, 100 µM in the data set “MTT cell viability assay” (rat, H9c2(2-1) cardiomyoblasts, all tested concentrations (1, 10, 25, 50, 100 µM), compared to control) was > 100%. For the same compound, the “apoptotic index (AI)” value in the data set with HaCaT keratinocytes is “no significant changes”. The migration rate in the data set on H9c2(2-1) cells (1 µM) is reported as 105.34%; in the data set with H9c2(2-1) cells (25 µM) it was 119.8%; in the data set on HepaRG cells (10 µM), “around 50%”; with HepaRG cells (25 µM), “around 50%”. The effect on migration result in the data set with HaCaT cells [2] (25 µM, compared to control) is “significant inhibition”; with HaCaT cells [2] (1 and 10 µM), “neither SIL, nor SIL-O or SIL-L affected”. Also, in data set [3], the stability result is listed as “unstable”. Further, the cytotoxicity entry was “not cytotoxic” in the data set with H9c2 cells and “no cytotoxic effect” in data set [5]. Besides, the effect on viability entry in [4] is reported as “significantly decreased the viability”. Besides, the “effect on migratory properties” value in [6] is recorded as “inhibitory effect”.

On to `CCCCCCCC/C=C\CCCCCCCC(=O)Oc1c(-c2ccc(O)c(O)c2)oc2cc(O)cc(O)c2c1=O` [quercetin-3-oleate], for which the “enhancement in wound healing compared to control” value was 47% with HaCaT cells [7] (0.1 µM (first concentration listed)), 35% in the data set on HaCaT cells [7] (0.1 µM (second concentration listed)) and 51% in the data set with HaCaT cells [7] (1 µM).
